These results are taken from ChEMBL document CHEMBL1201862, “PubChem BioAssay data set” (2004).

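Results reflect a 48-hour exposure of cells in 96-well plates to compound at five concentrations. Here, GI50 denotes the concentration required for 50% inhibition of growth.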 Activity calls are given as the source filed them. Rule as the data show it: active = GI50 up to about 1.1 µM and inactive = higher.

Test systems include ACHN; SF-539; SNB-19; OVCAR-8; HOP-92; M14; SF-268; NCI-H522; NCI/ADR-RES; SW-620; SNB-75; HCT-15; EKVX; NCI-H23; HCT-116; BT-549; HOP-62; SK-MEL-28; SN12C.
Holding throughout (assay): DTP human tumour cell line panel, 48 h

One may read the GI50 as the concentration at which growth is held to half of that of the control. For the compound `Cc1cn([C@@H]2O[C@H](CO[Si](C)(C)C(C)(C)C)[C@]3(O[C@H]3C(=O)NN)[C@H]2O[Si](C)(C)C(C)(C)C)c(=O)[nH]c1=O`, the GI50 was 5.86 µM (inactive) in the assay on ACHN; 4.75 µM (inactive) in the assay with SF-539; 7.66 µM (inactive) with SNB-19; 6.62 µM (inactive) in the assay with OVCAR-8; 6.24 µM (inactive) in the assay with HOP-92; 7.18 µM (inactive) with M14. In addition, the GI50 in the assay on SF-268 was 3.59 µM (inactive); in the assay on NCI-H522, 2.2 µM (inactive); in the assay on NCI/ADR-RES, 15.6 µM (inactive); in the assay with SW-620, 5.73 µM (inactive); in the assay with SNB-75 it was 7.98 µM (inactive); with HCT-15, 4.32 µM. The GI50 in the assay on EKVX is 8.61 µM (inactive); in the assay with NCI-H23, 14.1 µM (inactive); in the assay on HCT-116, 4.08 µM (inactive); with BT-549 it was 5.38 µM (inactive); with HOP-62 it was 14.4 µM (inactive); in the assay with SK-MEL-28, 10.3 µM (inactive). Further, in the assay on SN12C, the GI50 was 5.79 µM (inactive).

As for `C=C1c2nc3ccccc3n2C=C(c2ccc(C)cc2)N1c1ccccc1`, the GI50 in the assay with ACHN is 15.1 µM (inactive); with SF-539, 2.44 µM (inactive); with SNB-19, 4.04 µM (inactive); with OVCAR-8, 5.14 µM (inactive); with HOP-92, 27.1 µM (inactive); in the assay on M14, 3.12 µM (inactive). The GI50 is 12.9 µM (inactive) in the assay on SF-268; 0.617 µM (active) with NCI-H522; 1.79 µM (inactive) in the assay on NCI/ADR-RES; 1.67 µM (inactive) in the assay on SW-620; 2.08 µM (inactive) with SNB-75; 1.47 µM with HCT-15. The GI50 in the assay with EKVX is 2.9 µM (inactive); in the assay with NCI-H23 it was 4.02 µM (inactive); with HCT-116 it was 2.9 µM (inactive); with BT-549 it was 7.78 µM (inactive); in the assay with HOP-62, 6.49 µM (inactive); in the assay with SK-MEL-28, 5.58 µM (inactive). For the same compound, the GI50 with SN12C is 6.22 µM (inactive).

Consider `C[N+]1(CC[N+]2(C)CCCC2c2cccnc2)CCCC1c1cccnc1` (stereo unspecified), for which the GI50 in the assay with ACHN, in the assay with SF-539, with SNB-19, with OVCAR-8, with HOP-92 and in the assay with M14 was > 100 µM (inactive) throughout. For the same compound, the GI50 in the assay with SF-268 was > 100 µM (inactive); with NCI-H522, > 100 µM (inactive); in the assay on NCI/ADR-RES, > 100 µM (inactive); in the assay with SW-620, > 100 µM (inactive); in the assay on SNB-75, > 100 µM (inactive); with HCT-15, more than 100 µM. Besides, the GI50 in the assay with EKVX is 18.7 µM (inactive); with NCI-H23 it was > 100 µM (inactive); in the assay with HCT-116 it was 96.6 µM (inactive); with BT-549, > 100 µM (inactive); with HOP-62, > 100 µM (inactive); in the assay with SK-MEL-28 it was 61.8 µM (inactive). In addition, in the assay on SN12C, the GI50 is > 100 µM (inactive).

With `NNC(=O)c1c(Cl)c(Cl)c(Cl)c(Cl)c1-c1nc2ccccc2[nH]1`, the GI50 is 17.1 µM (inactive) in the assay on ACHN; 20.4 µM (inactive) in the assay on SF-539; 19.6 µM (inactive) in the assay with SNB-19; 29 µM (inactive) in the assay with OVCAR-8; 18.5 µM (inactive) with HOP-92; 9.55 µM (inactive) in the assay on M14. Besides, the GI50 in the assay on SF-268 is 17.4 µM (inactive); in the assay with NCI-H522, 13.4 µM (inactive); in the assay with NCI/ADR-RES, 6.34 µM (inactive); in the assay on SW-620 it was 10 µM (inactive); in the assay with SNB-75 it was 12.5 µM (inactive); in the assay with HCT-15 it was 5.07 µM. Moreover, the GI50 in the assay on EKVX is 12.4 µM (inactive); in the assay with NCI-H23 it was 15.6 µM (inactive); in the assay on HCT-116, 13.2 µM (inactive); in the assay on BT-549, 14.9 µM (inactive); in the assay on HOP-62, 4.29 µM (inactive); with SK-MEL-28 it was 15.8 µM (inactive). Moreover, in the assay on SN12C, the GI50 was 27 µM (inactive).

Regarding `COc1ccc([S+]([O-])Cc2cc(OC)ccc2OC)cc1` (stereo unspecified), the GI50 in the assay on ACHN, with SF-539, in the assay with SNB-19, in the assay with OVCAR-8, with HOP-92 and in the assay with M14 was > 100 µM (inactive) throughout. For the same compound, the GI50 in the assay on SF-268 was > 100 µM (inactive); in the assay with NCI-H522, > 100 µM (inactive); in the assay with NCI/ADR-RES it was > 100 µM (inactive); with SW-620 it was > 100 µM (inactive); with SNB-75, > 100 µM (inactive); with HCT-15, more than 100 µM. Further, the GI50 in the assay on EKVX, in the assay on NCI-H23, in the assay with HCT-116, in the assay on BT-549, in the assay with HOP-62 and with SK-MEL-28 was > 100 µM (inactive) in each case. Further, in the assay with SN12C, the GI50 was > 100 µM (inactive).

Consider `COc1cc2c(cc1OC)C1Cc3ccccc3CCN1CC2` (stereo unspecified), for which the GI50 with ACHN was > 100 µM (inactive); in the assay with SF-539 it was > 100 µM (inactive); in the assay with SNB-19 it was > 100 µM (inactive); with OVCAR-8, > 100 µM (inactive); in the assay with HOP-92, 36.1 µM (inactive); in the assay with M14, > 100 µM (inactive). Also, the GI50 in the assay with SF-268 was > 100 µM (inactive); with NCI-H522, > 100 µM (inactive); with NCI/ADR-RES, > 100 µM (inactive); with SW-620, > 100 µM (inactive); in the assay on SNB-75 it was 68.5 µM (inactive); in the assay on HCT-15, more than 100 µM. In addition, the GI50 in the assay with EKVX is > 100 µM (inactive); with NCI-H23 it was > 100 µM (inactive); with HCT-116 it was 39.1 µM (inactive); in the assay with BT-549, > 100 µM (inactive); with HOP-62 it was > 100 µM (inactive); with SK-MEL-28 it was > 100 µM (inactive). Further, the GI50 in the assay with SN12C was > 100 µM (inactive).

For the compound `C[C@]12C=CC(=O)C=C1CC[C@@H]1[C@@H]2CC[C@@]2(C)[C@H]1CC[C@]2(O)C(N)=O`, the GI50 in the assay on ACHN, in the assay with SF-539, in the assay with SNB-19, with OVCAR-8, in the assay on HOP-92 and in the assay on M14 was > 100 µM (inactive) throughout. For the same compound, the GI50 in the assay on SF-268 was > 100 µM (inactive); in the assay with NCI-H522, > 100 µM (inactive); with NCI/ADR-RES, > 100 µM (inactive); with SW-620, > 100 µM (inactive); with SNB-75, > 100 µM (inactive); in the assay with HCT-15 it was more than 100 µM. Besides, the GI50 with EKVX, with NCI-H23, with HCT-116, in the assay on BT-549, with HOP-62 and with SK-MEL-28 was > 100 µM (inactive) throughout. In addition, in the assay with SN12C, the GI50 is > 100 µM (inactive).

`C=CC[C@]1(C2=NC(C)(C)CO2)c2ccccc2-c2ccccc2[C@H]1C(C)=O`: the GI50 in the assay with ACHN is 12.5 µM (inactive); with SF-539, 10.8 µM (inactive); with SNB-19, 11.6 µM (inactive); in the assay on OVCAR-8 it was 15.7 µM (inactive); in the assay with HOP-92, 16.4 µM (inactive); with M14, 7.76 µM (inactive). For the same compound, the GI50 in the assay on SF-268 was 10 µM (inactive); in the assay on NCI-H522, 2.61 µM (inactive); in the assay with NCI/ADR-RES, 4 µM (inactive); in the assay on SW-620, 7.55 µM (inactive); in the assay on SNB-75 it was 10.9 µM (inactive); in the assay with HCT-15, 4.82 µM. Besides, the GI50 in the assay on EKVX is 15.6 µM (inactive); with NCI-H23, 12.7 µM (inactive); in the assay with HCT-116, 5.4 µM (inactive); with BT-549, 16 µM (inactive); in the assay with HOP-62 it was 0.643 µM (active); with SK-MEL-28, 14.2 µM (inactive). For the same compound, the GI50 in the assay on SN12C was 15.6 µM (inactive).

On to `CCCc1nc(Cl)nc(Cl)c1Cl`, for which the GI50 was 0.611 µM (active) in the assay with ACHN; 1.52 µM (inactive) in the assay on SF-539; 1.16 µM (inactive) in the assay with SNB-19; 0.456 µM (active) with OVCAR-8; 0.0104 µM (active) with HOP-92; 0.336 µM (active) with M14. Further, the GI50 is 1.85 µM (inactive) in the assay with SF-268; 0.374 µM (active) with NCI-H522; 0.32 µM (active) in the assay with NCI/ADR-RES; 0.0675 µM (active) in the assay with SW-620; 1.22 µM (inactive) in the assay with SNB-75; 0.0796 µM in the assay on HCT-15. Further, the GI50 in the assay with EKVX was 1.03 µM (active); in the assay on NCI-H23, 0.45 µM (active); in the assay with HCT-116, 0.259 µM (active); with BT-549 it was 0.0227 µM (active); in the assay on HOP-62, 0.908 µM (active); in the assay with SK-MEL-28, 0.472 µM (active). Also, in the assay with SN12C, the 50% growth inhibitory concentration (GI50) is 0.726 µM (active).

In the case of `O=C(NC1CCC(=O)N1C(=O)OCc1ccccc1)OCc1ccccc1` (stereo unspecified), the GI50 in the assay on ACHN, in the assay on SF-539, with SNB-19, with OVCAR-8, with HOP-92 and in the assay with M14 was > 100 µM (inactive) throughout. Moreover, the GI50 in the assay on SF-268 is > 100 µM (inactive); in the assay on NCI-H522, > 100 µM (inactive); with NCI/ADR-RES, > 100 µM (inactive); in the assay on SW-620 it was > 100 µM (inactive); in the assay with SNB-75 it was 77.6 µM (inactive); in the assay on HCT-15 it was more than 100 µM. For the same compound, the GI50 in the assay on NCI-H23, with BT-549, in the assay on HOP-62, in the assay with SK-MEL-28 and in the assay with SN12C was > 100 µM (inactive) each time.

Take `O=C(/C=C/c1ccc([N+](=O)[O-])cc1)c1nc2ccccc2[nH]1`: the GI50 with ACHN is 74.3 µM (inactive); with SF-539, 26.9 µM (inactive); in the assay on SNB-19 it was > 93.3 µM (inactive); in the assay with OVCAR-8 it was > 70.5 µM (inactive); with HOP-92, 45.5 µM (inactive); in the assay on M14, > 88.9 µM (inactive). Moreover, the GI50 with SF-268 is 39.4 µM (inactive); with NCI-H522, 32.9 µM (inactive); in the assay with NCI/ADR-RES, > 48.2 µM (inactive); in the assay with SW-620 it was 26.2 µM (inactive); with SNB-75, 45.3 µM (inactive); with HCT-15, 33 µM. For the same compound, the GI50 with EKVX is 61.5 µM (inactive); with HCT-116 it was 1.88 µM (inactive); in the assay with BT-549, > 62.8 µM (inactive); in the assay on HOP-62, > 34.2 µM (inactive); in the assay on SK-MEL-28, > 100 µM (inactive); in the assay with SN12C, > 100 µM (inactive).
